# Measured values taken from patent US8486996B2, “Aroylfuranes and aroylthiophenes” (Basilea Pharmaceutica AG, priority 2006, dated 2013).
# Read-outs that look alike come from different tables or passages of the source.
# Legend:
# [1] = Hoechst 33342 nuclear staining (48 h read-out); assay type: cell-based
# Outline: (§1)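 Adherent cells pre-spread 24 h before dosing, suspension cells dosed at seeding; compounds at 0.001 μM-10 μM final, 48 h at culture conditions. Hoechst 33342 (2-5 μg/ml) added for 30 min, then fluorescence microscopy scoring of apoptotic nuclear fraction and apoptosis-specific morphology, reported as scores A-D.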
# tumor cells [2] = assay: Hoechst 33342 nuclear staining (48 h read-out); assay type: cell-based
# Outline: as §1
# [3] = MTS proliferation assay (72 h read-out); assay type: cell-based; settings: Homo sapiens, MRC5 cells
# Outline: (§2)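 Viability was read by MTS absorbance at 492 nm after 3 h with reagent. Before that, cells plated a day earlier at 1.5×10^3–10^4 per well had been incubated with test compound at final concentrations of 0.001–10 μM for 72 h; activity is given as category scores A–D.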
# tumor cells [4] = assay: MTS proliferation assay (72 h read-out); assay type: cell-based
# Outline: as §2
# [5] = Mitochondrial membrane potential, JC-1 (read-out 48 h); assay type: cell-based; settings: PBL, JC-1, 48 h
# Outline: (§3)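 Tumor cells were treated with test compounds (adherent cells after 24 h of attachment, suspension cells immediately), medium holding up to 5% DMSO. After 48 h, JC-1 (2-5 μg/ml in added medium) was applied for 30 min. Fluorescence microscopy (FITC/TRITC filters) scored the fraction of cells with dissipated mitochondrial membrane potential as categories A-D.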
# tumor cells [6] = assay: as above; assay type: cell-based; settings: JC-1, 48 h
# Outline: as §3
# [7] = Homo sapiens, MRC5 cells, read-out: Hoechst 33342 nuclear staining EC50, MRC5
# [8] = PBL, read-out: Hoechst 33342 nuclear staining EC50, PBL
# [9] = Homo sapiens, HeLa cells, read-out: Hoechst 33342 nuclear staining EC50, HeLa
# [10] = Homo sapiens, Jurkat cells, read-out: Hoechst 33342 nuclear staining EC50, Jurkat
# [11] = Jily cells, read-out: Hoechst 33342 nuclear staining EC50, Jily
# [12] = Homo sapiens, HT-1080, HT1080 cells, read-out: MTS proliferation assay IC50, HT1080
# [13] = Homo sapiens, HeLa cells, read-out: MTS proliferation assay IC50, HeLa
# [14] = Jily cells, read-out: MTS proliferation assay IC50, Jily
# [15] = Homo sapiens, HeLa cells, read-out: Mitochondrial membrane potential (read-out 48 h) HeLa
# [16] = Homo sapiens, Jurkat cells, read-out: Mitochondrial membrane potential (read-out 48 h) Jurkat
# [17] = Homo sapiens, MCF7 cells, read-out: Mitochondrial membrane potential (read-out 48 h) MCF7
# [18] = Jily cells, read-out: Mitochondrial membrane potential (read-out 48 h) Jily
# [19] = Homo sapiens, Jurkat cells, read-out: MTS proliferation assay IC50, Jurkat
Compound,"EC50 [1, 8]",EC50 (tumor cells [2]; [9]),EC50 (tumor cells [2]; [10]),EC50 (tumor cells [2]; [11]),IC50 (tumor cells [4]; [12]),IC50 (tumor cells [4]; [13]),IC50 (tumor cells [4]; [14]),EC50 [5],EC50 (tumor cells [6]; [15]),EC50 (tumor cells [6]; [16]),EC50 (tumor cells [6]; [17]),EC50 (tumor cells [6]; [18]),melting point,IC50 (tumor cells [4]; [19]),"EC50 [1, 7]",IC50 [3]
CCOc1ccc(N)cc1C(=O)c1oc2ccc(Cl)cc2c1N [Example 7],> 1000 nM,100 to 1000 nM,100 to 1000 nM,100 to 1000 nM,100 to 1000 nM,100 to 1000 nM,100 to 1000 nM,> 1000 nM,100 to 1000 nM,100 to 1000 nM,> 1000 nM,100 to 1000 nM,144 to 146 °C,–,> 1000 nM,> 1000 nM
Cc1ccc(OC(C)C)c(C(=O)c2oc3ccc(Cl)cc3c2N)c1 [Example 16],> 1000 nM,10 to 100 nM,10 to 100 nM,10 to 100 nM,10 to 100 nM,10 to 100 nM,< 10 nM,> 1000 nM,10 to 100 nM,10 to 100 nM,10 to 100 nM,10 to 100 nM,110 to 112 °C,< 10 nM,10 to 100 nM,10 to 100 nM
CCOc1ccc(Cl)cc1C(=O)c1oc2ccc(Cl)cc2c1N [Example 17],> 1000 nM,10 to 100 nM,10 to 100 nM,10 to 100 nM,< 10 nM,10 to 100 nM,< 10 nM,> 1000 nM,10 to 100 nM,10 to 100 nM,10 to 100 nM,10 to 100 nM,140 to 142 °C,< 10 nM,10 to 100 nM,< 10 nM
CCOc1ccc(NC(C)=O)cc1C(=O)c1oc2ccc(Cl)cc2c1N [Example 21],> 1000 nM,> 1000 nM,> 1000 nM,> 1000 nM,> 1000 nM,> 1000 nM,> 1000 nM,> 1000 nM,> 1000 nM,> 1000 nM,> 1000 nM,> 1000 nM,110 to 112 °C,> 1000 nM,> 1000 nM,> 1000 nM
CCOc1cc(OC)c(Br)cc1C(=O)c1oc2ccc(Cl)cc2c1N [Example 23],> 1000 nM,> 1000 nM,100 to 1000 nM,100 to 1000 nM,> 1000 nM,> 1000 nM,100 to 1000 nM,> 1000 nM,> 1000 nM,100 to 1000 nM,> 1000 nM,> 1000 nM,132 to 133 °C,100 to 1000 nM,> 1000 nM,> 1000 nM
CCOc1c(OC)cccc1C(=O)c1oc2ccc(Cl)cc2c1N [Example 24],> 1000 nM,> 1000 nM,> 1000 nM,> 1000 nM,> 1000 nM,> 1000 nM,> 1000 nM,> 1000 nM,> 1000 nM,> 1000 nM,> 1000 nM,> 1000 nM,121 to 124 °C,> 1000 nM,> 1000 nM,> 1000 nM
CCOc1c(C)cccc1C(=O)c1oc2ccc(Cl)cc2c1N [Example 25],> 1000 nM,> 1000 nM,100 to 1000 nM,100 to 1000 nM,> 1000 nM,> 1000 nM,100 to 1000 nM,> 1000 nM,> 1000 nM,100 to 1000 nM,> 1000 nM,100 to 1000 nM,54 °C,100 to 1000 nM,> 1000 nM,> 1000 nM

# The next lines start with results.
"EC50 [1, 8]",EC50 (tumor cells [2]; [9]),EC50 (tumor cells [2]; [10]),EC50 (tumor cells [2]; [11]),IC50 (tumor cells [4]; [12]),IC50 (tumor cells [4]; [13]),IC50 (tumor cells [4]; [14]),EC50 [5],EC50 (tumor cells [6]; [15]),EC50 (tumor cells [6]; [16]),EC50 (tumor cells [6]; [17]),EC50 (tumor cells [6]; [18]),melting point,IC50 (tumor cells [4]; [19]),Compound,"EC50 [1, 7]",IC50 [3]
> 1000 nM,10 to 100 nM,< 10 nM,10 to 100 nM,10 to 100 nM,10 to 100 nM,10 to 100 nM,> 1000 nM,10 to 100 nM,10 to 100 nM,100 to 1000 nM,10 to 100 nM,174 to 176 °C,10 to 100 nM,CCOc1ccc(Cl)cc1C(=O)c1oc2nc(C)ccc2c1N [Example 27],> 1000 nM,10 to 100 nM
> 1000 nM,100 to 1000 nM,10 to 100 nM,10 to 100 nM,100 to 1000 nM,100 to 1000 nM,10 to 100 nM,> 1000 nM,100 to 1000 nM,10 to 100 nM,> 1000 nM,100 to 1000 nM,156 to 158 °C,10 to 100 nM,CCOc1ccccc1C(=O)c1oc2nc(C)ccc2c1N [Example 28],> 1000 nM,100 to 1000 nM
> 1000 nM,100 to 1000 nM,100 to 1000 nM,100 to 1000 nM,100 to 1000 nM,100 to 1000 nM,100 to 1000 nM,> 1000 nM,100 to 1000 nM,100 to 1000 nM,> 1000 nM,100 to 1000 nM,168 °C,100 to 1000 nM,CCOc1ccccc1C(=O)c1oc2cnc(C)cc2c1N [Example 30],> 1000 nM,> 1000 nM
> 1000 nM,10 to 100 nM,10 to 100 nM,10 to 100 nM,10 to 100 nM,10 to 100 nM,10 to 100 nM,> 1000 nM,100 to 1000 nM,10 to 100 nM,> 1000 nM,10 to 100 nM,162 °C,10 to 100 nM,CCOc1ccc(F)cc1C(=O)c1oc2cnc(C)cc2c1N [Example 31],100 to 1000 nM,10 to 100 nM
> 1000 nM,> 1000 nM,> 1000 nM,> 1000 nM,> 1000 nM,> 1000 nM,> 1000 nM,> 1000 nM,> 1000 nM,> 1000 nM,> 1000 nM,> 1000 nM,138 to 142 °C,> 1000 nM,CCOc1ccccc1C(=O)c1sc2ncccc2c1N [Example 114],> 1000 nM,> 1000 nM
> 1000 nM,> 1000 nM,> 1000 nM,> 1000 nM,> 1000 nM,> 1000 nM,> 1000 nM,> 1000 nM,> 1000 nM,> 1000 nM,> 1000 nM,> 1000 nM,205 °C,> 1000 nM,CCOc1ccc(F)cc1C(=O)c1sc2ncc([N+](=O)[O-])cc2c1N [Example 115],> 1000 nM,> 1000 nM
> 1000 nM,10 to 100 nM,10 to 100 nM,10 to 100 nM,100 to 1000 nM,100 to 1000 nM,10 to 100 nM,> 1000 nM,100 to 1000 nM,10 to 100 nM,> 1000 nM,10 to 100 nM,80 °C,10 to 100 nM,CCOc1ccc(F)cc1C(=O)c1sc2ncc(N)cc2c1N [Example 116],10 to 100 nM,100 to 1000 nM
> 1000 nM,> 1000 nM,> 1000 nM,> 1000 nM,> 1000 nM,> 1000 nM,> 1000 nM,> 1000 nM,> 1000 nM,> 1000 nM,> 1000 nM,> 1000 nM,116 °C,> 1000 nM,CCOc1ccccc1C(=O)c1sc2ncc(N)cc2c1N [Example 117],> 1000 nM,> 1000 nM
